# Assays:
# [1] = Toxicity in Swiss albino mouse assessed as body weight at 5 mg/kg, po administered as single dose (reference value: 31.62 +/- 1.64 gms); type: organism-based; conditions: in vivo
# [2] = Toxicity in Swiss albino mouse assessed as SGPT level in serum at 300 mg/kg, po administered as single dose (reference value: 21.81 +/-2.1 U/L); type: organism-based; conditions: in vivo
# MDA-MB-231 [3] = assay: Induction of apoptosis in human MDA-MB-231 cells assessed as proportion of necrotic cells at 2.6 uM measured after 24 hrs by Annexin V-FITC/propidium iodide staining based flow cytometry (reference value: 0.2%); type: functional
# [4] = Toxicity in Swiss albino mouse assessed as absolute and relative brain weight at 5 to 300 mg/kg, po administered as single dose; type: organism-based; conditions: in vivo, dose 5-300 mg/kg
# MDA-MB-231 [5] = assay: Induction of cell cycle arrest in human MDA-MB-231 cells assessed as accumulation at G2/M phase at 10.42 uM by propidium iodide staining based flow cytometry (reference value: 8.35 +/-0.07%); type: functional
# MDA-MB-231 [6] = assay: Induction of apoptosis in human MDA-MB-231 cells at 5.21 uM by propidium iodide staining based flow cytometry (reference value: 2.6 +/- 0.28%); type: functional
# THP-1 = assay: Antiproliferative activity against human THP-1 cells assessed as inhibition of cell growth measured after 48 hrs by SRB assay; type: functional, cell-based; conditions: THP-1, 48 h
# [7] = Toxicity in Swiss albino mouse assessed as cholesterol level in serum at 50 mg/kg, po administered as single dose (reference value: 103.62 +/-7.45 mg/dl); type: organism-based; conditions: in vivo
# MDA-MB-231 [8] = assay: Induction of apoptosis in human MDA-MB-231 cells assessed as proportion of necrotic cells at 10.42 uM measured after 24 hrs by Annexin V-FITC/propidium iodide staining based flow cytometry (reference value: 0.2%); type: functional
# MCF7 [9] = assay: Induction of apoptosis in human MCF-7 cells assessed as proportion of early apoptotic cells at 4.33 uM measured after 24 hrs by Annexin V- FITC/propidium iodide staining based flow cytometry (reference value: 0%); type: functional
# [10] = Toxicity in Swiss albino mouse assessed as ALP level in serum at 300 mg/kg, po administered as single dose (reference value: 195.8 +/-12.06 U/L); type: organism-based; conditions: in vivo
# MDA-MB-231 [11] = assay: Induction of apoptosis in human MDA-MB-231 cells assessed as proportion of necrotic cells at 5.21 uM measured after 24 hrs by Annexin V-FITC/propidium iodide staining based flow cytometry (reference value: 0.2%); type: functional
# [12] = Toxicity in Swiss albino mouse assessed as morbidity upto 300 mg/kg, po administered as single dose; type: organism-based; conditions: in vivo
# [13] = target: DNA topoisomerase 2-alpha (Homo sapiens) (UniProt P11388); assay: Inhibition of DNA-topoisomerase 2 in human MCF7 cells using kinetoplast DNA as substrate at 17.32 uM measured by ELISA; type: cell-based
# Chain of DNA topoisomerase 2-alpha (Homo sapiens) (P11388 whole entry): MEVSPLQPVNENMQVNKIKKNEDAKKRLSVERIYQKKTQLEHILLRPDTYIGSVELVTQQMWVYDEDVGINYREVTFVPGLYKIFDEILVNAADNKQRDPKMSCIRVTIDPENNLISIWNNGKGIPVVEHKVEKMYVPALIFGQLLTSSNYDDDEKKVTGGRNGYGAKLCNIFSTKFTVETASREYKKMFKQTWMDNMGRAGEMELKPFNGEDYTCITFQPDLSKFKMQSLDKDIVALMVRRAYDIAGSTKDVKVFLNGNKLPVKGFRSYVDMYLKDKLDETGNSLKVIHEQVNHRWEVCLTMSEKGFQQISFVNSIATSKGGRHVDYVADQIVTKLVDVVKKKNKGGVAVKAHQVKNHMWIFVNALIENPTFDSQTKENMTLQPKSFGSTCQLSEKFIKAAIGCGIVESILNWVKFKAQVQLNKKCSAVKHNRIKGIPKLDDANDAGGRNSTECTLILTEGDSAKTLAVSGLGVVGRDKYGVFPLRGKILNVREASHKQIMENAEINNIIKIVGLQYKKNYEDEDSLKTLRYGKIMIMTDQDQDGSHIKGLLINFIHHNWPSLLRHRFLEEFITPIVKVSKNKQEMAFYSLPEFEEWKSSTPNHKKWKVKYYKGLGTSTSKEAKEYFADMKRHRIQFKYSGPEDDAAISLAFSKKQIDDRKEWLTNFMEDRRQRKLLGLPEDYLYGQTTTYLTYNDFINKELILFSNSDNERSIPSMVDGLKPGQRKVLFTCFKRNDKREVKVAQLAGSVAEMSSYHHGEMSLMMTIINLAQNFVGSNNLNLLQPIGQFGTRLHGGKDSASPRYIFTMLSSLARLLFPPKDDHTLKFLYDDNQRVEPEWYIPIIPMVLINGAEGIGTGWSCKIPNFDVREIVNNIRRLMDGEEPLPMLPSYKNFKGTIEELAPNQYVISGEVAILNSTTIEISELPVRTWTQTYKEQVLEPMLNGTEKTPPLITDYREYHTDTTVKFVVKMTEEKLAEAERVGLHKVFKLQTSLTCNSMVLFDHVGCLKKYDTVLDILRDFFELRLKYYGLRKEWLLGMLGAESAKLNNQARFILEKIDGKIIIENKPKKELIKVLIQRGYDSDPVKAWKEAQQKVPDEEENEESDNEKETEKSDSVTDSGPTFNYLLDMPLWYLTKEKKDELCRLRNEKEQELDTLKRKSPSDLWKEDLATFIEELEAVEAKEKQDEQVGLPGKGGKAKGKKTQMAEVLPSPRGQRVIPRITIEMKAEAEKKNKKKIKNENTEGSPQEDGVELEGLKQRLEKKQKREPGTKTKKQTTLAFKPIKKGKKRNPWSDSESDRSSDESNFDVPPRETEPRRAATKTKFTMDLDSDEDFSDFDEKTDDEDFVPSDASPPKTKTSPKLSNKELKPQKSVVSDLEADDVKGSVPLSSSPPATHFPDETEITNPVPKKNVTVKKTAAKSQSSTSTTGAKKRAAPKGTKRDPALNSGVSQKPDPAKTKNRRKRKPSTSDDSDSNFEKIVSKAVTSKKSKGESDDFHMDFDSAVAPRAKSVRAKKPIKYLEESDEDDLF
# MCF7 [14] = assay: Induction of cell cycle arrest in human MCF-7 cells assessed as accumulation at G0/G1 phase at 8.66 uM by propidium iodide staining based flow cytometry (reference value: 74.5%); type: functional
# [15] = Toxicity in Swiss albino mouse assessed as serum protein level at 5 mg/kg, po administered as single dose (reference value: 2.83 +/-0.09 mg/ml); type: organism-based; conditions: in vivo
# [16] = Toxicity in Swiss albino mouse assessed as albumin level in serum at 5 mg/kg, po administered as single dose (reference value: 0.56 +/-0.02 g/dl); type: organism-based; conditions: in vivo
# [17] = Toxicity in Swiss albino mouse assessed as creatinine level in serum at 5 mg/kg, po administered as single dose (reference value: 0.27+/-0.02 mg/dl); type: organism-based; conditions: in vivo
# A549 = assay: Antiproliferative activity against human A549 cells assessed as inhibition of cell growth measured after 48 hrs by SRB assay; type: functional, cell-based; conditions: A549, 48 h
# [18] = Toxicity in Swiss albino mouse assessed as total bilirubin level in serum at 300 mg/kg, po administered as single dose (reference value: 0.62 +/-0.05 mg/dl); type: organism-based; conditions: in vivo
# MCF7 [19] = assay: Induction of cell cycle arrest in human MCF-7 cells assessed as accumulation at S phase at 2.17 uM by propidium iodide staining based flow cytometry (reference value: 6.9%); type: functional
# MDA-MB-231 [20] = assay: Induction of apoptosis in human MDA-MB-231 cells assessed as proportion of early apoptotic cells at 10.42 uM measured after 24 hrs by Annexin V-FITC/propidium iodide staining based flow cytometry (reference value: 0.2%); type: functional
# [21] = Toxicity in Swiss albino mouse assessed as WBC level in blood at 300 mg/kg, po administered as single dose (reference value: 17.06 +/- 1.33x10^3/mm3); type: organism-based; conditions: in vivo
# MCF7 [22] = assay: Induction of apoptosis in human MCF-7 cells at 8.66 uM by propidium iodide staining based flow cytometry (reference value: 2.1%); type: functional
# MCF7 [23] = assay: Induction of apoptosis in human MCF-7 cells assessed as proportion of necrotic cells at 2.17 uM measured after 24 hrs by Annexin V- FITC/propidium iodide staining based flow cytometry (reference value: 5.3%); type: functional
# MCF7 [24] = assay: Induction of cell cycle arrest in human MCF-7 cells assessed as accumulation at G2/M phase at 4.33 uM by propidium iodide staining based flow cytometry (reference value: 15.2%); type: functional
# MDA-MB-231 [25] = assay: Induction of cell cycle arrest in human MDA-MB-231 cells assessed as accumulation at G0/G1 phase at 5.21 uM by propidium iodide staining based flow cytometry (reference value: 77.7 +/- 0.28%); type: functional
# MDA-MB-231 [26] = assay: Antiproliferative activity against human MDA-MB-231 cells assessed as inhibition of cell growth measured after 48 hrs by SRB assay; type: functional, cell-based; conditions: MDA-MB-231, 48 h, read-out: IC50
# MCF7 [27] = assay: Antiproliferative activity against human MCF-7 cells assessed as inhibition of cell growth measured after 48 hrs by SRB assay; type: functional, cell-based; conditions: MCF7, 48 h
# MDA-MB-231 [28] = assay: Induction of cell cycle arrest in human MDA-MB-231 cells assessed as accumulation at G0/G1 phase at 2.6 uM by propidium iodide staining based flow cytometry (reference value: 77.7 +/- 0.28%); type: functional
# MCF7 [29] = assay: Antiproliferative activity against human MCF-7 cells assessed as proportion of dead cells at 12.5 ug/ml measured after 3 weeks by crystal violet staining based soft agar colony formation assay; type: functional; conditions: dose 12.5 µg/ml
# MDA-MB-231 [30] = assay: Induction of apoptosis in human MDA-MB-231 cells assessed as proportion of late apoptotic cells at 2.6 uM measured after 24 hrs by Annexin V-FITC/propidium iodide staining based flow cytometry (reference value: 0.5%); type: functional
# [31] = Inhibition of bovine brain tubulin polymerisation measured by turbidometric method; type: tissue-based, Bos taurus
# MDA-MB-231 [32] = assay: Induction of apoptosis in human MDA-MB-231 cells assessed as proportion of late apoptotic cells at 10.42 uM measured after 24 hrs by Annexin V-FITC/propidium iodide staining based flow cytometry (reference value: 0.5%); type: functional
# MCF7 [33] = assay: Antiproliferative activity against human MCF-7 cells assessed as proportion of dead cells at 50 ug/ml measured after 3 weeks by crystal violet staining based soft agar colony formation assay; type: functional; conditions: dose 50 µg/ml
smiles,measurement,setting,value
COc1ccc(C(c2ccccc2OCCN2CCCC2)c2cccc3ccccc23)c(OC)c1OC (stereo not given),Activity,[1],30.58 g
same,Activity,[2],22.34 U/L
same,Activity,MDA-MB-231 [3],2.1%
same,Activity,[4],Non-Toxic
same,Activity,MDA-MB-231 [5],15.05%
same,Activity,MDA-MB-231 [6],2.8%
same,IC50,THP-1,12.6 µM
same,Activity,[7],100.11 mg/dL
same,Activity,MDA-MB-231 [8],14.7%
same,Activity,MCF7 [9],0%
same,Activity,[10],137.7 U/L
same,Activity,MDA-MB-231 [11],1.7%
same,Activity,[12],Non-Toxic
same,inhibition,[13],25.9%
same,Activity,MCF7 [14],66.5%
same,Activity,[15],2.27 mg/mL
same,Activity,[16],0.65 g/dL
same,Activity,[17],0.22 mg/dL
same,IC50,A549,5.85 µM
same,Activity,[18],1.01 mg/dL
same,Activity,MCF7 [19],10.9%
same,Activity,MDA-MB-231 [20],1.7%
same,Activity,[21],7.19 10^3/mm3
same,Activity,MCF7 [22],11.4%
same,Activity,MCF7 [23],5%
same,Activity,MCF7 [24],13.4%
same,Activity,MDA-MB-231 [25],79.1%
same,IC50,MDA-MB-231 [26],5.21 µM
same,IC50,MCF7 [27],4.33 µM
same,Activity,MDA-MB-231 [28],80.2%
same,Activity,MCF7 [29],52.8%
same,Activity,MDA-MB-231 [30],2%
same,IC50,[31],5.65 µM
same,Activity,MDA-MB-231 [32],34.2%
same,Activity,MCF7 [33],87.02%

# — ChEMBL document CHEMBL4680139, “Antiproliferative activity of diarylnaphthylpyrrolidine derivative via dual target inhibition” (Eur J Med Chem, 2020)
